Converted amounts (≈) assume the structure as drawn. Read-outs that look alike come from different tables or passages of the source.
What was measured:
[1] = test system: platelet aggregation induced by adenosine-diphosphoric acid (ADP); assay: inhibiting activity on platelet aggregation induced by ADP on human blood; type: cell-based; conditions: for IC50: read-out: IC50 (concentration which produces 50%-inhibition of platelet aggregation); for Relative activity against PGE1: relative to PGE1 (control) = 1.00, ADP-induced
Source text: The platelet aggregation was induced by adenosine-diphosphoric acid (ADP) on human blood. The IC50 values given in the Table are the concentrations which produce 50%-inhibition of platelet aggregation.
INHIBITING ACTIVITIES ON PLATELET AGGREGATION INDUCED BY ADP

[2] = test system: carbon tetrachloride-induced liver damage; assay: carbon tetrachloride-induced liver damage in rats; type: in vivo; conditions: oral, in comparison with controls
Description: The experiments were carried out by the methods described in Example 1 of the specification of published W. German Patent Application No. 3310556.1 and Japanese Patent Kokai No. 58-164512, except that carbon tetrachloride was used as a 10% solution in olive oil.

[3] = acute toxicity in mice by oral administration; conditions: mouse, in vivo
Description: For example, in a test of acute toxicity in mice by oral administration, the value of LD50 of 6-keto-16S,18S-ethano-20-ethyl-PGE1 for the compound of the present invention is very large; that is the value is more than […] animal body weight.

[4] = ADP-induced platelet aggregation, human blood

IC50 [1, 4] [ng/mL]	Structure (SMILES)	IC50 ([1]; Homo sapiens, Platelet) [ng/mL]	activity as compared with the comparison compound (times as strong) ([1]; compared with compound of Example 2(d) of U.S. Pat. No. 4,278,688, platelet aggregation)	Relative activity against PGE1 ([1]; human blood)	inhibition of plasma GOT (glutamic oxalacetic transaminase) ([2]; 20 μg/kg) [%]	inhibition of plasma GPT (glutamic pyruvic transaminase) ([2]; 20 μg/kg) [%]	inhibition of plasma GOT (glutamic oxalacetic transaminase) ([2]; 50 μg/kg) [%]	inhibition of plasma GPT (glutamic pyruvic transaminase) ([2]; 50 μg/kg) [%]	LD50 [3] [mg/kg]
–	CCCC[C@H]1CC[C@H]([C@H](O)/C=C/[C@H]2[C@H](O)CC(=O)[C@@H]2CC(=O)CCCCC(=O)O)C1 [6-keto-16S,18S-ethano-20-ethyl-PGE1, 6,9-dioxo-11α,15α-dihydroxy-16S,18S-ethano-20-ethylprost-13E-enoic acid]	0.08 (≈ 0.189 nM)	about 45 times	431	47	42	64	66	> 3
34.5 (≈ 97.3 nM)	CCCCC[C@H](O)/C=C/[C@H]1[C@H](O)CC(=O)[C@@H]1CCCCCCC(=O)O [PGE1, reference compound]	–	–	–	–	–	–	–	–
3.6 (≈ 8.25 nM)	CCCCC1CCC([C@H](O)/C=C/[C@H]2[C@H](O)CC(=O)[C@@H]2CC(=O)CCCCC(=O)OC)C1 (some centres unmarked) [reference compound]	–	–	9.58	–	–	–	–	–

Source: patent publication US4562207A, “Prostaglandin analogue” (Ono Pharmaceutical Co., Ltd., priority 1983, dated 1985)
